# Laboratory results from the NIST ThermoML archive (doi:10.1021/acs.jced.5b00950).
# Numbers after ± are expanded uncertainties.
# Key:
# [1] = 298.2 K; 101.33 kPa; Liquid; Vibrating tube method
# [2] = refractive index (Na D-line) (dimensionless); conditions: 298.2 K; 101.33 kPa; Liquid; Standard Abbe refractometry
mass density [1] [kg/m3],refractive index [2],SMILES
1073 ± 2,1.5012 ± 0.002,CC(=O)Oc1ccccc1 [phenyl ethanoate]
999.9 ± 2,1.3324 ± 0.002,O [water]
952.8 ± 2,1.3964 ± 0.002,CCCC(=O)O [butanoic acid]
